Where a name gives a salt, the structure may show the parent alone.
Key:
rat EP4 receptor = rat EP4 receptor (Rattus norvegicus, UniProt P43114); assay: EP4 receptor agonistic action in rat (cAMP increasing action in rat EP4 receptor expression CHO-K1 cells); assay type: cell-based; set-up: expressed in transfected cells; details: cAMP increasing action by 1 μM PGE2 taken as 100%
Method: The agonistic activity was evaluated by the cAMP increasing action in the rat EP4 receptor expression cells. The rat EP4 receptor expression vector was introduced into CHO-K1 cells (American Type Culture Collection) to prepare a rat EP4 receptor stable expression cell line. These cells were seeded onto a 96-well microplate at 2×10^4 cell/well, and used for the experiment the next day. The culture medium of each well was removed by suction, 100 μL/well of an assay culture medium (2 μM indomethacin, 0.1% bovine serum albumin-containing α-MEM) was added thereto, and incubated at 37° C. for 1 hour. The culture medium was removed again by suction, and replaced with 100 μL/well of an assay culture medium comprising a test compound and 1 mM IBMX (3-isobutyl-1-methylxanthine). After incubating at 37° C. for 30 minutes, the culture medium was removed by suction, 100 μL/well of a cell lysate (0.2% Triton-X100-containing phosphate buffer physiological saline) was put thereinto, and the plate was shaken for 10 minutes. Using a cAMP femto 2 kit (manufactured by Cis Bio International), the cAMP concentration in the cell lysate was measured. Further, the cAMP increasing action (%) was calculated with the cAMP increasing action by 1 μM PGE2 was taken as 100%.

TNF-α production = assay: In vivo TNF-α production inhibiting action in rat (LPS-induced plasma TNF-α); set-up: species or system SD male rats; details: oral administration 1 hour before LPS (10 μg/kg i.v.), plasma TNF-α 90 minutes after LPS
Method: LPS (10 μg/kg) was administered to caudal veins of SD male rats, and after 90 minutes from the administration, the heparin blood was collected from the abdominal vena cava to prepare a plasma. The test compound was orally administered 1 hour before the administration of LPS. The amount of TNF-α in the plasma was measured using a BD OptEIA rat TNF ELISA set (manufactured by Becton, Dickinson and Company) according to the attached method. The inhibitory rate by the test compound was determined from the amount of TNF-α in plasma in a control group (administered with a solvent).

[1] = test system: LPS-induced TNF-α production in THP-1 cells; assay: Inhibitory action on LPS-induced TNF-α production in THP-1 cells; assay type: cell-based; details: Homo sapiens, 3 hours after LPS, ELISA
Method: Human monocytic cell line THP-1 cells were suspended in an assay medium (PRMI-1640 containing 10% fetal bovine serum, 100 unit/mL penicillin G sodium, and 100 μg/mL streptomycin sulfate), and seeded onto a 96-well plate at 1×10^5 cells/well. 50 μL/well of an assay medium containing a test compound was added thereto, followed by incubation at 37° C. for 30 minutes. Further, 50 μL/well of an assay medium containing 1 to 5 μg/mL of LPS was added thereto, and the TNF-α concentration in the assay medium of each well after 3 hours was measured. The measurement was carried out by means of a standard ELISA method. A 96-well plate which had been coated overnight with an anti-human TNF monoclonal antibody (clone: MAb1) (manufactured by Becton, Dickinson and Company) as a capture antibody was washed with a wash buffer (PBS containing 0.05% Tween-20), and PBS containing 10% fetal bovine serum was incubated at room temperature for 1 hour to perform blocking. After washing with a wash buffer, 100 μL/well of the assay medium to be measured was incubated at 4° C. overnight. As the standard material to be measured, a recombinant human TNF (manufactured by Becton, Dickinson and Company) was used. After washing with a wash buffer, 100 μL of a biotinylated anti-human TNF monoclonal antibody (clone: MAb11) as a detection antibody was treated at room temperature for 1 hour. After washing with a wash buffer, it was treated with 100 μL/well of an HRP-labeled Streptavidin (manufactured by Zymed Laboratories, Inc.) at room temperature for 30 minutes, and washed again. Treatment was conducted using 100 μL/well of a TMB (3,3′,5,5′-tetramethylbenzidine) substrate liquid at room temperature for 20 minutes in a dark room. A 2 M sulfuric acid was added thereto at 50 μL/well to stop the reaction, and an absorbance at 450 nm/570 nm was measured by means of a plate reader SPECRA max (manufactured by Molecular Devices Inc.).

Sequence of rat EP4 receptor (P43114 whole entry): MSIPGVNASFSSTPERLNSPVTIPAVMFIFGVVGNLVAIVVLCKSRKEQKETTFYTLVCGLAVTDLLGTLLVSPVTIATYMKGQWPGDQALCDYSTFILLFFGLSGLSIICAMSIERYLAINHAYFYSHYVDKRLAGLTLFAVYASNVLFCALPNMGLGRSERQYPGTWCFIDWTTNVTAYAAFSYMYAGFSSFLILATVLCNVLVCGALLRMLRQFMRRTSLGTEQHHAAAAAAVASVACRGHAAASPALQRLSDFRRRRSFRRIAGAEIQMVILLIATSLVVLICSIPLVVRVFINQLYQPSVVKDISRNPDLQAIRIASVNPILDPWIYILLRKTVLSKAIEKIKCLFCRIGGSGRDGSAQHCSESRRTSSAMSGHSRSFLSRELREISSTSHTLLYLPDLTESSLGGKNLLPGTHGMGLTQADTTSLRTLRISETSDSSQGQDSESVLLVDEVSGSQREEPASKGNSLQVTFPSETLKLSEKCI

cAMP increasing action (%) at 10 μM (rat EP4 receptor) [%] | IC50 [1] [nM] | SMILES | ED50 (TNF-α production) [mg/kg]
65 | 11 | O=C(O)c1ccc(CCn2c(CN3CCc4ccc(F)cc43)c(Cl)cc(Cl)c2=O)cc1 [Example 9, 4-(2-{3,5-dichloro-6-[(6-fluoro-2,3-dihydro-1H-indol-1-yl)methyl]-2-oxopyridin-1(21-1)-yl}ethyl)benzoic acid] | 4.3
76 | 40 | O=C(O)c1ccc(CCn2c(CNc3cccc(OC(F)(F)F)c3)c(Cl)cc(Cl)c2=O)cc1 [Example 107] | 1
58 | 9.4 | CCC[C@H]1CCCN1Cc1c(Cl)cc(Cl)c(=O)n1CCc1ccc(C(=O)O)cc1 [Example 17, 4-{2-[3,5-dichloro-2-oxo-6-{[(2S)-2-propylpyrrolidin-1-yl]methyl}pyridin-1(2H)-yl]ethyl}benzoic acid trifluoroacetate] | 0.15
79 | 29 | CN(Cc1c(Cl)cc(Cl)c(=O)n1CCc1ccc(C(=O)O)cc1)c1cccc(Cl)c1 [Example 160] | 2.3

— patent publication US20110082133A1, “PYRIDONE COMPOUNDS” (priority 2008, published 2011)
